# Assay results published in a melting point compilation (Tetko et al.; mined from patent text by program, amines drawn as free bases though some values may be those of a salt).
# Residues, ends and D or L forms follow the SMILES beside them. *: point of attachment. Boc = CC(C)(C)OC(=O)*; NHNH2 = NN*
row,Structure (SMILES),melting point [°C]
1,CSc1nccc(Oc2ccc(NC(=O)c3cc(F)cc(N4CCOCC4)c3)c3ccccc23)n1,189 to 190
2,OCCCNc1nnc(NCCCO)c2cc3ccccc3cc12,225 to 228
3,CCCCCCCCCCCCCCCc1cccc(OC)c1,27 to 28
4,Cc1n[nH]c2c(C(=O)NC(C)C)c(NC(=O)c3cc(C(F)(F)F)nn3-c3ncccc3Cl)c(Cl)cc12,235 to 236
5,COC(=O)C(C#N)=CC1=C(N2CCCC2)CCCC1,133 to 134
6,COC(=O)C(C)(C)CCCOc1ccc(NC(=O)C(C)(C)CCCOc2cc(C)ccc2C)cc1,62 to 63
7,CC(C)c1ccc(N(Cc2ccc(N(C)C)cc2)C(=O)C2CCOc3c(C#N)cccc32)cc1 (stereo not drawn),179
8,C[C@@H]1CC(=O)CC(C)(C)C1=O,91 to 92
9,CCOc1ccc2c(c1)n(C13CC4CC(CC(C4)C1)C3)c(=O)n2S(=O)(=O)c1ccc(N)cc1OC,248
10,COC(=O)C1(Cl)CCC(=O)O1 (stereo not drawn),50.5 to 51
11,c1ccc(-c2ccc(-c3csc(Nc4cc5ccccc5cn4)n3)s2)nc1,246 to 248
12,COc1ccc(C(=O)CCCCCBr)c(Cl)c1Cl,52 to 53
13,CCCc1c(CSc2nccc(OCC(=O)OCC)n2)ccc(C(C)=O)c1O,112 to 117
14,Cc1cc(-c2ccc(Cl)c(Cl)c2)nc(-c2ccnc(-c3cccc(S(N)(=O)=O)c3)c2)n1,202
15,COc1ccc(C2=NN(c3ccc(NS(=O)(=O)c4ccc(C)cc4)cc3)C(=O)[C@H]3CC=CC[C@@H]23)cc1OC (relative stereo),229 to 230
16,CN(C)S(=O)(=O)c1cc2c(c(Cl)c1Cl)OC(CCl)C2 (stereo not drawn),77 to 78
17,O=c1oc(-c2ccccc2)cc(O)c1Sc1cccc2ccccc12,242 to 243
18,Cc1ccc(C(=O)NC(NC(=S)Nc2cccc(F)c2F)C(F)(F)F)cc1 (stereo not drawn),210 to 211
19,COc1cc(Nc2c(C#N)cnc3cc(I)sc23)cc(OC)c1OC,254 to 256
20,COc1ccc(CNc2ccc(C#N)cc2)cc1OC,150
21,N#CCN1C(=O)N(c2ccc(C#N)c(C(F)(F)F)c2)C(=O)C1(CO)CO,157 to 158

row,Structure (SMILES),melting point [°C]
1,CCC1(N2C(=O)c3c(F)c(F)c(F)c(F)c3C2=O)C(=O)NC(=O)N(c2ccccc2)C1=O (stereo not drawn),218 to 220
2,CCOC(=O)c1cnc2c(C(F)(F)F)cc(-c3ccc(C(F)(F)F)cc3)cn12,132
3,COc1ccc(C(=O)Nc2cc(NC(=O)c3cccc(N(C)S(C)(=O)=O)c3)ccc2C)cc1OC,168 to 169
4,C=CCN(CC)C(=O)n1cnc(S(=O)(=O)CC)n1,39 to 41.5
5,Cc1c(-c2ccccc2)[nH]c2ccc(Br)cc12,138 to 140
6,COc1cc(C(=O)NS(=O)(=O)c2ccccc2C)ccc1Cc1c(Cl)n(C)c2ccc(CCNC(=O)N(C)C)cc12,222 to 224
7,O=C(Nc1ccc2nc(CN3CCCC3)ccc2c1)N1CCC(c2ccc(F)cc2)CC1,206 to 207
8,CSc1cc(C(C)C)c(NC(=O)C2c3ccccc3COc3ccc(Br)cc32)c(C(C)C)c1 (stereo not drawn),171 to 172
9,COC(=O)Nc1c(C/C=C(\C)CCC(=O)O)c(OC)c(C)c2c1C(=O)OC2,155 to 158
10,Nc1cc(N2CCCCC2)c(F)cc1[N+](=O)[O-],112 to 113
11,CCCCc1ccc(CN(CCC(C)(C)C)C(=O)Nc2c(C)cc(Cl)cc2C)cc1,138 to 139
12,Cc1ccc(-c2[nH]nc(COCCCO)c2-c2ccc(S(N)(=O)=O)cc2)cc1,85 to 86
13,CSc1nc(Cl)c(-c2c(F)cccc2Cl)c(NC(C)C)n1,94 to 98
14,COc1cc(OC)cc(-c2ncoc2-c2ccc(OC)c(N)c2O)c1,152 to 154
15,Cn1c(CO)nc([N+](=O)[O-])c1C#N,122 to 124
16,Cc1oc(-c2ccc3ccccc3c2)nc1COc1ccc(COc2ncccc2C#N)cc1,145 to 146
17,CCC1=C(C#N)C(c2cccc(C#N)c2Br)c2c[nH]nc2N1 (stereo not drawn),> 300
18,N#Cc1cnc(Nc2ccc(OCCn3ccnn3)cc2)nc1-c1ccccc1,178
19,O=[N+]([O-])C1COc2cc3c(cc2C1c1ccccc1C1OCCCO1)OCO3 (stereo not drawn),207
20,COC(=O)c1ccc(OCCNC(=O)C2Cc3ccccc3N2S(=O)(=O)c2ccc(-c3ccc(F)cc3Cl)cc2)nc1 (stereo not drawn),78 to 85
21,CSCCC(NC(=O)C(CCCCNC(=O)OC(C)(C)C)NC(=O)C(Cc1ccc(O)cc1)NC(=O)C1CCCN1)C(=O)NN (stereo not drawn) (H-PYK(Boc)M-NHNH2; configuration not given here),206 to 207

row,Structure (SMILES),melting point [°C]
1,CCCOc1ccc(S(=O)(=O)N2CCN(CC)CC2)cc1-c1nc2cc3ncn(Cc4cccc(OC)c4)c3cc2c(=O)[nH]1,117 to 118
2,COc1nc(N)nc(C(C)C)n1,116 to 118
3,CC(=O)Nc1ccc(S(=O)(=O)N(C)c2ccc(O)cc2)cc1,202 to 203
4,CCOC(=O)/C=C(C)/C=C/C=C(C)/C=C/c1c(C)coc1C,98 to 101
5,CNc1c([N+](=O)[O-])c(Br)nn1C,185
6,Cc1onc(-c2ccccc2)c1-c1ccc(S(C)(=O)=O)cc1,54 to 56
7,CCOC(=O)/C=C/c1ccc(-c2nc3c(=O)n(CC4CCCCC4)c(=O)n(CC4CCCCC4)c3[nH]2)cc1,> 300
8,CC(C)(CO)NCc1ccccc1,46 to 47
9,COc1cc(C)ccc1CNC(=O)C(=O)NCCc1ccc(C)cn1,116 to 117
10,CCCCCCC(=O)C[C@H](O)C(=O)O,69 to 70
11,Cc1cc(C2=NOC(c3cc(Cl)cc(Cl)c3)(C(F)(F)F)C2)ccc1C(=O)NC1CSSC1 (stereo not drawn),73
12,COc1cc2c(Nc3cc(OC)c(OC)c(OC)c3)c(C#N)cnc2cc1/C=C/CCN1CCN(C)CC1,122 to 124
13,COC(=O)c1c(OC(C)=O)cc(CBr)cc1OC(C)=O,93 to 95
14,Cc1oc(-c2ccccc2)nc1Cc1cc2cc(C#N)ccc2o1,139 to 140
15,Cc1cccc2c1N(CC(=O)N1CC3CCC(CC3)C1)C(=O)C(NC(=O)c1cc3ccccc3[nH]1)N=C2C1CCCCC1 (racemic),206 to 212
16,O=C1NCN2CCC1CC2,125 to 126
17,COC(=O)C=CCc1cc(C=CC(=O)OC(C)(C)C)cc(Cc2cccnc2)c1,91 to 93
18,COCOc1ccc(C=O)cc1OC,39 to 40
19,COc1ccc2[nH]c(/C=C/C(=O)OCc3ccccc3)cc2c1,155 to 157
20,N#Cc1ccc(N(CCOc2ccc(OCc3ccccc3)c(Br)c2)n2cnnc2)cc1,163 to 166

# Continued, values first:
row,melting point [°C],Structure (SMILES)
1,230 to 231,Cc1c(S(C)(=O)=O)ccc(C(=O)O)c1Cl
2,55 to 64,O=C(O)C1CCC(OCc2ccccc2)CC1 (stereo not drawn)
3,192 to 193,CCOC(=O)C(=O)Nc1cccc(-c2nnn[nH]2)c1
4,250 to 253,CNc1c(F)cc2c(=O)c(C(=O)O)cn(-c3ccc(F)c(OC)c3)c2c1Cl
5,256 to 258,CCOC(=O)c1cccc(Nc2ncnc3[nH]cc(C(=O)c4ccccc4)c23)c1
6,250 to 252,CCn1c(=O)c2nc(C(=O)O)cn2c2ccccc21
7,109 to 110,CCOCCOC(=O)C(=O)Nc1nc(-c2ccccc2)cs1
8,143 to 145,C[C@H]1[C@H](O)[C@H](O)C(S(=O)(=O)c2ccccc2)=C[C@H](C)[C@H]1O
9,199 to 204,COc1ncc(Cl)cc1C1OC(=O)NC1=O (stereo not drawn)
10,144 to 146,CC(C)(C)OC(=O)NCOc1ccccc1C(=O)OCC#N
11,205 to 206,C[C@]12C=CC(=O)N[C@@H]1CCc1cc(-c3cccc([N+](=O)[O-])c3)ccc12
12,227 to 229,Cc1nc2c(Cl)c(NC(=O)Cc3ccc(Cl)cc3)ccc2s1
13,165 to 166,Cn1c(-c2ccccc2)c(-c2ccc(C(=O)O)cc2)c2ccccc21
14,187 to 191,CCCn1nc(C2CC2)c(C(N)=O)c1Cc1ccc(-c2ccccc2S(=O)(=O)NC(=O)c2ccccc2)cc1
15,208 to 210,O=C(Nc1nc2ccccc2nc1Oc1ccccc1)N1CCN(C(c2ccccc2)c2ccccc2)CC1
16,134 to 136,O=C(O)C(O)N1C(=O)CCN1c1cccc(Cl)c1 (stereo not drawn)
17,106,COC(=O)C1(CCN(C)C)c2ccccc2N(C)c2ccc(Cl)cc21 (stereo not drawn)
18,105 to 120,CC(C)(C)c1ccc(S(=O)(=O)N2c3ccccc3C[C@H]2C(=O)NCc2ccc(C(=O)O)cc2)cc1

row,melting point [°C],Structure (SMILES)
1,113 to 115,COc1ccc([N+](=O)[O-])cc1NC(=O)CC(=O)C1(C)COC(C)(C)OC1
2,199 to 200,CC(Cl)(Cl)C(NC(=O)c1ccc(Cl)cc1)NC(=NC#N)Nc1ccc(Cl)nc1 (stereo not drawn)
3,136 to 137,COc1ccc([N+](=O)[O-])cc1N1CCN(C(=O)OC(C)(C)C)CC1
4,158 to 159,Cc1ccc2[nH]cc(C3=C(Br)C(=O)N(C)C3=O)c2c1
5,240 to 250,COC(=O)c1ccc(-c2nc3cc(Cl)c(Cl)cc3[nH]2)cc1
6,162,O=C(O)c1c(Cl)ccc2c1OCCO2
7,178,N=C(Nc1ccc2ccncc2c1)c1cccs1
8,189 to 190,CCc1cccc2c3c([nH]c12)C(CC)(CC(N)=O)OCC3 (stereo not drawn)
9,132 to 134,CSC[C@H](C)NC(=O)c1c(I)cccc1C(=O)O
10,123 to 135,Cc1cc(C(=O)N2CCN(c3c(C#N)c(=O)n(Cc4ccc(F)cc4)c4ccccc34)CC2)no1
11,268 to 270,Cn1cc(-c2cc3cccnc3[nH]2)c2cc(C(=O)NCCN3CCOCC3)ccc21
12,154,CN1C(=O)CCC1(O)c1ccc(Cl)c(N)c1 (stereo not drawn)
13,256,Nc1ncc(CCN2CCC(C(=O)c3ccc(F)cc3)CC2)c(O)n1
14,199 to 203,CCC1C(=O)c2c(cc(OCC(=O)O)c(Cl)c2Cl)C1c1ccccc1 (stereo not drawn)
15,158 to 160,CC(C)CN1C(=O)C2CC(c3ccc(N)cc3)(C2)C1=O
16,114 to 118,CCOc1ccc(-n2c(N)cc(=O)nc2Nc2ccccc2)cc1
17,108 to 109,O=C(O)CCCCCCc1cncc2ccccc12
18,181,CCOC(=O)CN(C(=O)CNC(=O)Nc1cccc(C)c1)c1ccccc1
